Measured values published in the NIST ThermoML archive (doi:10.1021/acs.jced.5b00077).
Numbers after ± are expanded uncertainties.

What was measured:
[1] = refractive index (Na D-line) (dimensionless); settings: 101.33 kPa, Liquid, Standard Abbe refractometry
[2] = for surface tension liquid-gas: Ring tensiometer; for electrical conductivity: 101.33 kPa, Liquid, Alternating current cell with electrodes

CC(=O)[O-].[NH3+]CCCO [3-hydroxypropylammonium acetate]
refractive index ([1]; 293.15 K): 1.4663 ± 0.0012
refractive index ([1]; 298.15 K): 1.4652 ± 0.0012
refractive index ([1]; 303.15 K): 1.464 ± 0.0012
refractive index ([1]; 308.15 K): 1.4628 ± 0.0012
refractive index ([1]; 313.15 K): 1.4616 ± 0.0012
refractive index ([1]; 318.15 K): 1.4605 ± 0.0012
refractive index ([1]; 323.15 K): 1.4593 ± 0.0012
refractive index ([1]; 328.15 K): 1.4581 ± 0.0012
refractive index ([1]; 333.15 K): 1.457 ± 0.0012
surface tension liquid-gas ([2]; 293.15 K): 48 ± 1.4 mN/m
electrical conductivity ([2]; 293.15 K): 0.01 ± 0.01 S/m
surface tension liquid-gas ([2]; 298.15 K): 47.5 ± 1.3 mN/m
electrical conductivity ([2]; 298.15 K): 0.01 ± 0.01 S/m
surface tension liquid-gas ([2]; 303.15 K): 47 ± 1.3 mN/m
electrical conductivity ([2]; 303.15 K): 0.01 ± 0.01 S/m
surface tension liquid-gas ([2]; 308.15 K): 46.5 ± 1.3 mN/m
electrical conductivity ([2]; 308.15 K): 0.02 ± 0.01 S/m
surface tension liquid-gas ([2]; 313.15 K): 46 ± 1.3 mN/m
electrical conductivity ([2]; 313.15 K): 0.02 ± 0.01 S/m
surface tension liquid-gas ([2]; 318.15 K): 45.5 ± 1.3 mN/m
electrical conductivity ([2]; 318.15 K): 0.03 ± 0.01 S/m
surface tension liquid-gas ([2]; 323.15 K): 45 ± 1.3 mN/m
electrical conductivity ([2]; 323.15 K): 0.04 ± 0.01 S/m
surface tension liquid-gas ([2]; 328.15 K): 44.5 ± 1.3 mN/m
electrical conductivity ([2]; 328.15 K): 0.05 ± 0.01 S/m
surface tension liquid-gas ([2]; 333.15 K): 44 ± 1.2 mN/m
electrical conductivity ([2]; 333.15 K): 0.06 ± 0.01 S/m

CCC[NH3+].O=C[O-] [propylammonium formate]
refractive index ([1]; 293.15 K): 1.44 ± 0.0012
refractive index ([1]; 298.15 K): 1.4386 ± 0.0012
refractive index ([1]; 303.15 K): 1.4372 ± 0.0012
refractive index ([1]; 308.15 K): 1.4356 ± 0.0012
refractive index ([1]; 313.15 K): 1.4341 ± 0.0012
refractive index ([1]; 318.15 K): 1.4326 ± 0.0012
refractive index ([1]; 323.15 K): 1.431 ± 0.0012
refractive index ([1]; 328.15 K): 1.4295 ± 0.0012
refractive index ([1]; 333.15 K): 1.428 ± 0.0012
surface tension liquid-gas ([2]; 293.15 K): 37.8 ± 1.1 mN/m
electrical conductivity ([2]; 293.15 K): 0.31 ± 0.01 S/m
surface tension liquid-gas ([2]; 298.15 K): 37.4 ± 1.1 mN/m
electrical conductivity ([2]; 298.15 K): 0.36 ± 0.01 S/m
surface tension liquid-gas ([2]; 303.15 K): 37 ± 1.1 mN/m
electrical conductivity ([2]; 303.15 K): 0.44 ± 0.01 S/m
surface tension liquid-gas ([2]; 308.15 K): 36.6 ± 1 mN/m
electrical conductivity ([2]; 308.15 K): 0.51 ± 0.01 S/m
surface tension liquid-gas ([2]; 313.15 K): 36.2 ± 1 mN/m
electrical conductivity ([2]; 313.15 K): 0.59 ± 0.01 S/m
surface tension liquid-gas ([2]; 318.15 K): 35.8 ± 1 mN/m
electrical conductivity ([2]; 318.15 K): 0.68 ± 0.01 S/m
surface tension liquid-gas ([2]; 323.15 K): 35.4 ± 1 mN/m
electrical conductivity ([2]; 323.15 K): 0.78 ± 0.01 S/m
surface tension liquid-gas ([2]; 328.15 K): 35 ± 1 mN/m
electrical conductivity ([2]; 328.15 K): 0.87 ± 0.01 S/m
surface tension liquid-gas ([2]; 333.15 K): 34.6 ± 1 mN/m
electrical conductivity ([2]; 333.15 K): 1 ± 0.01 S/m

O=C[O-].[NH3+]CCCO [3-hydroxypropylammonium formate]
refractive index ([1]; 293.15 K): 1.4678 ± 0.0012
refractive index ([1]; 298.15 K): 1.4667 ± 0.0012
refractive index ([1]; 303.15 K): 1.4655 ± 0.0012
refractive index ([1]; 308.15 K): 1.4644 ± 0.0012
refractive index ([1]; 313.15 K): 1.4632 ± 0.0012
refractive index ([1]; 318.15 K): 1.4621 ± 0.0012
refractive index ([1]; 323.15 K): 1.461 ± 0.0012
refractive index ([1]; 328.15 K): 1.4598 ± 0.0012
refractive index ([1]; 333.15 K): 1.4586 ± 0.0012
surface tension liquid-gas ([2]; 293.15 K): 56.9 ± 1.6 mN/m
electrical conductivity ([2]; 293.15 K): 0.11 ± 0.01 S/m
surface tension liquid-gas ([2]; 298.15 K): 56.4 ± 1.6 mN/m
electrical conductivity ([2]; 298.15 K): 0.14 ± 0.01 S/m
surface tension liquid-gas ([2]; 303.15 K): 55.9 ± 1.6 mN/m
electrical conductivity ([2]; 303.15 K): 0.17 ± 0.01 S/m
surface tension liquid-gas ([2]; 308.15 K): 55.4 ± 1.6 mN/m
electrical conductivity ([2]; 308.15 K): 0.21 ± 0.01 S/m
surface tension liquid-gas ([2]; 313.15 K): 54.9 ± 1.5 mN/m
electrical conductivity ([2]; 313.15 K): 0.26 ± 0.01 S/m
surface tension liquid-gas ([2]; 318.15 K): 54.4 ± 1.5 mN/m
electrical conductivity ([2]; 318.15 K): 0.3 ± 0.01 S/m
surface tension liquid-gas ([2]; 323.15 K): 54 ± 1.5 mN/m
electrical conductivity ([2]; 323.15 K): 0.36 ± 0.01 S/m
surface tension liquid-gas ([2]; 328.15 K): 53.5 ± 1.5 mN/m
electrical conductivity ([2]; 328.15 K): 0.42 ± 0.01 S/m
surface tension liquid-gas ([2]; 333.15 K): 53 ± 1.5 mN/m
electrical conductivity ([2]; 333.15 K): 0.49 ± 0.01 S/m

O=C([O-])C(F)(F)F.[NH3+]CCCO [3-hydroxypropylammonium trifluoroacetate]
refractive index ([1]; 293.15 K): 1.4113 ± 0.0012
refractive index ([1]; 298.15 K): 1.4101 ± 0.0012
refractive index ([1]; 303.15 K): 1.409 ± 0.0012
refractive index ([1]; 308.15 K): 1.4078 ± 0.0012
refractive index ([1]; 313.15 K): 1.4067 ± 0.0012
refractive index ([1]; 318.15 K): 1.4055 ± 0.0012
refractive index ([1]; 323.15 K): 1.4044 ± 0.0012
refractive index ([1]; 328.15 K): 1.4032 ± 0.0012
refractive index ([1]; 333.15 K): 1.402 ± 0.0012
surface tension liquid-gas ([2]; 293.15 K): 38.2 ± 1.1 mN/m
electrical conductivity ([2]; 293.15 K): 0.03 ± 0.01 S/m
surface tension liquid-gas ([2]; 298.15 K): 37.8 ± 1.1 mN/m
electrical conductivity ([2]; 298.15 K): 0.04 ± 0.01 S/m
surface tension liquid-gas ([2]; 303.15 K): 37.4 ± 1.1 mN/m
electrical conductivity ([2]; 303.15 K): 0.06 ± 0.01 S/m
surface tension liquid-gas ([2]; 308.15 K): 37 ± 1.1 mN/m
electrical conductivity ([2]; 308.15 K): 0.09 ± 0.01 S/m
surface tension liquid-gas ([2]; 313.15 K): 36.5 ± 1 mN/m
electrical conductivity ([2]; 313.15 K): 0.12 ± 0.01 S/m
surface tension liquid-gas ([2]; 318.15 K): 36.1 ± 1 mN/m
electrical conductivity ([2]; 318.15 K): 0.16 ± 0.01 S/m
surface tension liquid-gas ([2]; 323.15 K): 35.7 ± 1 mN/m
electrical conductivity ([2]; 323.15 K): 0.2 ± 0.01 S/m
surface tension liquid-gas ([2]; 328.15 K): 35.3 ± 1 mN/m
electrical conductivity ([2]; 328.15 K): 0.25 ± 0.01 S/m
surface tension liquid-gas ([2]; 333.15 K): 34.9 ± 1 mN/m
electrical conductivity ([2]; 333.15 K): 0.31 ± 0.01 S/m

CC(=O)[O-].CCC[NH3+] [propylammonium acetate]
refractive index ([1]; 293.15 K): 1.4383 ± 0.0012
refractive index ([1]; 298.15 K): 1.4369 ± 0.0012
refractive index ([1]; 303.15 K): 1.4356 ± 0.0012
refractive index ([1]; 308.15 K): 1.4341 ± 0.0012
refractive index ([1]; 313.15 K): 1.4328 ± 0.0012
refractive index ([1]; 318.15 K): 1.4313 ± 0.0012
refractive index ([1]; 323.15 K): 1.4301 ± 0.0012
refractive index ([1]; 328.15 K): 1.4287 ± 0.0012
refractive index ([1]; 333.15 K): 1.4273 ± 0.0012
surface tension liquid-gas ([2]; 293.15 K): 33.5 ± 1 mN/m
electrical conductivity ([2]; 293.15 K): 0.04 ± 0.01 S/m
surface tension liquid-gas ([2]; 298.15 K): 33.1 ± 1 mN/m
electrical conductivity ([2]; 298.15 K): 0.06 ± 0.01 S/m
surface tension liquid-gas ([2]; 303.15 K): 32.7 ± 0.9 mN/m
electrical conductivity ([2]; 303.15 K): 0.08 ± 0.01 S/m
surface tension liquid-gas ([2]; 308.15 K): 32.2 ± 0.9 mN/m
electrical conductivity ([2]; 308.15 K): 0.1 ± 0.01 S/m
surface tension liquid-gas ([2]; 313.15 K): 31.8 ± 0.9 mN/m
electrical conductivity ([2]; 313.15 K): 0.14 ± 0.01 S/m
surface tension liquid-gas ([2]; 318.15 K): 31.4 ± 0.9 mN/m
electrical conductivity ([2]; 318.15 K): 0.17 ± 0.01 S/m
surface tension liquid-gas ([2]; 323.15 K): 31 ± 0.9 mN/m
electrical conductivity ([2]; 323.15 K): 0.22 ± 0.01 S/m
surface tension liquid-gas ([2]; 328.15 K): 30.6 ± 0.9 mN/m
electrical conductivity ([2]; 328.15 K): 0.27 ± 0.01 S/m
surface tension liquid-gas ([2]; 333.15 K): 30.2 ± 0.9 mN/m
electrical conductivity ([2]; 333.15 K): 0.33 ± 0.01 S/m
